Test results: BindingDB's records for doi:10.1021/jm960416g (Universidad Complutense, 1996)

Columns and labels:
D(2) dopamine receptor = D(2) dopamine receptor (Rattus norvegicus, UniProt P61169); assay: Binding affinity towards dopamine receptor D2 using [3H]-raclopride radioligand.
[1] = molecular target: T1, 5-hydroxytryptamine receptor 1A (Rattus norvegicus, UniProt P19327); assay: Binding affinity towards rat 5-hydroxytryptamine 1A receptor using [3H]8-OH-DPAT radioligand.
T1 sequence (P19327 whole entry): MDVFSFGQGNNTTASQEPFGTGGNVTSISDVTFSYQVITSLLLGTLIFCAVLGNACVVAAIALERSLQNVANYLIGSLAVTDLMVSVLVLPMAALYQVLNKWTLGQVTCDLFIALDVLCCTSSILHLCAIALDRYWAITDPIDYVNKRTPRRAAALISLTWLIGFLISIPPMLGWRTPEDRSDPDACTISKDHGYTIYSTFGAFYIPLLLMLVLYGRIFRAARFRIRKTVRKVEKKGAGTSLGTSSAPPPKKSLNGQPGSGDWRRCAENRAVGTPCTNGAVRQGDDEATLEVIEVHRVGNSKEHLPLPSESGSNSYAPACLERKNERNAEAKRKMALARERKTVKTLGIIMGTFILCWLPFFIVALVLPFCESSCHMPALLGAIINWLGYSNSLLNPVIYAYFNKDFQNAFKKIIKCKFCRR

D(2) dopamine receptor, sequence (P61169 whole entry): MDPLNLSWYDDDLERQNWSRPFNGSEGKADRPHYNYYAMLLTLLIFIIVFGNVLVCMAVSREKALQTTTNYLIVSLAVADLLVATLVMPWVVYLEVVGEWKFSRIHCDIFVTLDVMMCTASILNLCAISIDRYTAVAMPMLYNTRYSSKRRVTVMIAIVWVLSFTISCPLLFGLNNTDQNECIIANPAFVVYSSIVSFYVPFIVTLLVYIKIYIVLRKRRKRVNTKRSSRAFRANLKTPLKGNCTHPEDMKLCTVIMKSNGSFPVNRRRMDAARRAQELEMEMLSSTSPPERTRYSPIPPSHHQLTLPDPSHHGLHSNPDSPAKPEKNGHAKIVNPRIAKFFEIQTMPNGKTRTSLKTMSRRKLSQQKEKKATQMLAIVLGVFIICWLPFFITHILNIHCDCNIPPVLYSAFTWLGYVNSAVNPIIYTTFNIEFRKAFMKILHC

| SMILES | Ki (D(2) dopamine receptor) [nM] | Ki [1] [nM] |
| --- | --- | --- |
| O=c1n(CN2CCN(c3cccc(Cl)c3)CC2)c(O)c2n1CCCC2 [2-[4-(3-Chloro-phenyl)-piperazin-1-ylmethyl]-tetrahydro-imidazo[1,5-a]pyridine-1,3-dione] | > 10000 | – |
| O=c1n(CCCCN2CCN(c3ccccc3)CC2)c(O)c2n1CCCC2 [2-[4-(4-Phenyl-piperazin-1-yl)-butyl]-tetrahydro-imidazo[1,5-a]pyridine-1,3-dione] | > 1000 | – |
| O=c1n(CCN2CCN(c3ccc(F)cc3)CC2)c(O)c2n1CCCC2 [2-{2-[4-(4-Fluoro-phenyl)-piperazin-1-yl]-ethyl}-tetrahydro-imidazo[1,5-a]pyridine-1,3-dione] | > 10000 | > 10000 |
| O=c1n(CCCN2CCN(c3ccc(F)cc3)CC2)c(O)c2n1CCC2 [2-{3-[4-(4-Fluoro-phenyl)-piperazin-1-yl]-propyl}-tetrahydro-pyrrolo[1,2-c]imidazole-1,3-dione] | > 1000 | > 1000 |
| O=c1n(CCCN2CCN(c3ccc(F)cc3)CC2)c(O)c2n1CCCC2 | > 1000 | – |
| COc1ccccc1N1CCN(CCCCn2c(O)c3n(c2=O)CCCC3)CC1 [2-{4-[4-(2-Methoxy-phenyl)-piperazin-1-yl]-butyl}-tetrahydro-imidazo[1,5-a]pyridine-1,3-dione] | > 1000 | – |
| O=c1n(CCCN2CCN(c3cccc(C(F)(F)F)c3)CC2)c(O)c2n1CCC2 [2-{3-[4-(3-Trifluoromethyl-phenyl)-piperazin-1-yl]-propyl}-tetrahydro-pyrrolo[1,2-c]imidazole-1,3-dione] | > 1000 | – |
| O=c1n(CN2CCN(c3cccc(C(F)(F)F)c3)CC2)c(O)c2n1CCCC2 [2-[4-(3-Trifluoromethyl-phenyl)-piperazin-1-ylmethyl]-tetrahydro-imidazo[1,5-a]pyridine-1,3-dione] | > 1000 | – |
| O=c1n(CN2CCN(c3ccccc3)CC2)c(O)c2n1CCCC2 [2-(4-Phenyl-piperazin-1-ylmethyl)-tetrahydro-imidazo[1,5-a]pyridine-1,3-dione] | > 10000 | – |
| O=c1n(CCN2CCN(c3cccc(C(F)(F)F)c3)CC2)c(O)c2n1CCC2 [2-{2-[4-(3-Trifluoromethyl-phenyl)-piperazin-1-yl]-ethyl}-tetrahydro-pyrrolo[1,2-c]imidazole-1,3-dione] | > 1000 | – |
| O=c1n(CCCCN2CCN(c3ccc([N+](=O)[O-])cc3)CC2)c(O)c2n1CCCC2 [2-{4-[4-(4-Nitro-phenyl)-piperazin-1-yl]-butyl}-tetrahydro-imidazo[1,5-a]pyridine-1,3-dione] | > 1000 | > 1000 |
| O=c1n(CN2CCN(c3ccc(F)cc3)CC2)c(O)c2n1CCC2 [2-[4-(4-Fluoro-phenyl)-piperazin-1-ylmethyl]-tetrahydro-pyrrolo[1,2-c]imidazole-1,3-dione] | > 10000 | – |
| COc1ccccc1N1CCN(Cn2c(O)c3n(c2=O)CCC3)CC1 [2-[4-(2-Methoxy-phenyl)-piperazin-1-ylmethyl]-tetrahydro-pyrrolo[1,2-c]imidazole-1,3-dione] | > 1000 | – |
| O=c1n(CCCCN2CCN(c3cccc(C(F)(F)F)c3)CC2)c(O)c2n1CCC2 [2-{4-[4-(3-Trifluoromethyl-phenyl)-piperazin-1-yl]-butyl}-tetrahydro-pyrrolo[1,2-c]imidazole-1,3-dione] | > 1000 | – |
| O=c1n(CN2CCN(c3ccc([N+](=O)[O-])cc3)CC2)c(O)c2n1CCC2 [2-[4-(4-Nitro-phenyl)-piperazin-1-ylmethyl]-tetrahydro-pyrrolo[1,2-c]imidazole-1,3-dione] | > 10000 | > 1000 |
| O=c1n(CCCCN2CCN(c3ccc(F)cc3)CC2)c(O)c2n1CCC2 [2-{4-[4-(4-Fluoro-phenyl)-piperazin-1-yl]-butyl}-tetrahydro-pyrrolo[1,2-c]imidazole-1,3-dione] | > 1000 | – |
| O=c1n(CN2CCN(c3ccc([N+](=O)[O-])cc3)CC2)c(O)c2n1CCCC2 [2-[4-(4-Nitro-phenyl)-piperazin-1-ylmethyl]-tetrahydro-imidazo[1,5-a]pyridine-1,3-dione] | > 10000 | > 1000 |
| O=c1n(CCN2CCN(c3ccc(F)cc3)CC2)c(O)c2n1CCC2 [2-{2-[4-(4-Fluoro-phenyl)-piperazin-1-yl]-ethyl}-tetrahydro-pyrrolo[1,2-c]imidazole-1,3-dione] | > 10000 | > 10000 |
| COc1ccccc1N1CCN(Cn2c(O)c3n(c2=O)CCCC3)CC1 [2-[4-(2-Methoxy-phenyl)-piperazin-1-ylmethyl]-tetrahydro-imidazo[1,5-a]pyridine-1,3-dione] | > 10000 | – |
| O=c1n(CCCN2CCN(c3cccc(C(F)(F)F)c3)CC2)c(O)c2n1CCCC2 [2-{3-[4-(3-Trifluoromethyl-phenyl)-piperazin-1-yl]-propyl}-tetrahydro-imidazo[1,5-a]pyridine-1,3-dione] | > 1000 | – |

| SMILES | Ki (D(2) dopamine receptor) [nM] | Ki [1] [nM] |
| --- | --- | --- |
| O=c1n(CN2CCN(c3ccccc3)CC2)c(O)c2n1CCC2 [2-(4-Phenyl-piperazin-1-ylmethyl)-tetrahydro-pyrrolo[1,2-c]imidazole-1,3-dione] | > 10000 | – |
| O=c1n(CCCN2CCN(c3cccc(Cl)c3)CC2)c(O)c2n1CCCC2 [2-{3-[4-(3-Chloro-phenyl)-piperazin-1-yl]-propyl}-tetrahydro-imidazo[1,5-a]pyridine-1,3-dione] | > 1000 | – |
| O=c1n(CCN2CCN(c3ccccc3)CC2)c(O)c2n1CCC2 [2-[2-(4-Phenyl-piperazin-1-yl)-ethyl]-tetrahydro-pyrrolo[1,2-c]imidazole-1,3-dione] | > 1000 | > 1000 |
| O=c1n(CCCN2CCN(c3cccc(Cl)c3)CC2)c(O)c2n1CCC2 [2-{3-[4-(3-Chloro-phenyl)-piperazin-1-yl]-propyl}-tetrahydro-pyrrolo[1,2-c]imidazole-1,3-dione] | > 1000 | – |
| O=c1n(CCN2CCN(c3ccc([N+](=O)[O-])cc3)CC2)c(O)c2n1CCCC2 [2-{2-[4-(4-Nitro-phenyl)-piperazin-1-yl]-ethyl}-tetrahydro-imidazo[1,5-a]pyridine-1,3-dione] | > 10000 | > 10000 |
| COc1ccccc1N1CCN(CCCn2c(O)c3n(c2=O)CCCC3)CC1 [2-{3-[4-(2-Methoxy-phenyl)-piperazin-1-yl]-propyl}-tetrahydro-imidazo[1,5-a]pyridine-1,3-dione] | > 1000 | – |
| O=c1n(CCN2CCN(c3ccccc3)CC2)c(O)c2n1CCCC2 [2-[2-(4-Phenyl-piperazin-1-yl)-ethyl]-tetrahydro-imidazo[1,5-a]pyridine-1,3-dione] | > 1000 | > 1000 |
| O=c1n(CCCN2CCN(c3ccccc3)CC2)c(O)c2n1CCCC2 [2-[3-(4-Phenyl-piperazin-1-yl)-propyl]-tetrahydro-imidazo[1,5-a]pyridine-1,3-dione] | > 1000 | – |
| O=c1n(CCCCN2CCN(c3ccc([N+](=O)[O-])cc3)CC2)c(O)c2n1CCC2 | > 1000 | > 1000 |
| O=c1n(CCCN2CCN(c3ccc([N+](=O)[O-])cc3)CC2)c(O)c2n1CCC2 [2-{3-[4-(4-Nitro-phenyl)-piperazin-1-yl]-propyl}-tetrahydro-pyrrolo[1,2-c]imidazole-1,3-dione] | > 10000 | > 10000 |
| O=c1n(CN2CCN(c3ccc(F)cc3)CC2)c(O)c2n1CCCC2 [2-[4-(4-Fluoro-phenyl)-piperazin-1-ylmethyl]-tetrahydro-imidazo[1,5-a]pyridine-1,3-dione] | > 10000 | – |
| O=c1n(CN2CCN(c3cccc(Cl)c3)CC2)c(O)c2n1CCC2 [2-[4-(3-Chloro-phenyl)-piperazin-1-ylmethyl]-tetrahydro-pyrrolo[1,2-c]imidazole-1,3-dione] | > 10000 | – |
| O=c1n(CCCN2CCN(c3ccccc3)CC2)c(O)c2n1CCC2 [2-[3-(4-Phenyl-piperazin-1-yl)-propyl]-tetrahydro-pyrrolo[1,2-c]imidazole-1,3-dione] | > 1000 | – |
| O=c1n(CCN2CCN(c3ccc([N+](=O)[O-])cc3)CC2)c(O)c2n1CCC2 [2-{2-[4-(4-Nitro-phenyl)-piperazin-1-yl]-ethyl}-tetrahydro-pyrrolo[1,2-c]imidazole-1,3-dione] | > 10000 | > 10000 |
| O=c1n(CCN2CCN(c3cccc(Cl)c3)CC2)c(O)c2n1CCCC2 [2-{2-[4-(3-Chloro-phenyl)-piperazin-1-yl]-ethyl}-tetrahydro-imidazo[1,5-a]pyridine-1,3-dione] | > 1000 | – |
| O=c1n(CCN2CCN(c3cccc(C(F)(F)F)c3)CC2)c(O)c2n1CCCC2 [2-{2-[4-(3-Trifluoromethyl-phenyl)-piperazin-1-yl]-ethyl}-tetrahydro-imidazo[1,5-a]pyridine-1,3-dione] | > 1000 | – |
| O=c1n(CN2CCN(c3cccc(C(F)(F)F)c3)CC2)c(O)c2n1CCC2 [2-[4-(3-Trifluoromethyl-phenyl)-piperazin-1-ylmethyl]-tetrahydro-pyrrolo[1,2-c]imidazole-1,3-dione] | > 1000 | – |
| COc1ccccc1N1CCN(CCCn2c(O)c3n(c2=O)CCC3)CC1 [2-{3-[4-(2-Methoxy-phenyl)-piperazin-1-yl]-propyl}-tetrahydro-pyrrolo[1,2-c]imidazole-1,3-dione] | > 1000 | – |
| O=c1n(CCCN2CCN(c3ccc([N+](=O)[O-])cc3)CC2)c(O)c2n1CCCC2 [2-{3-[4-(4-Nitro-phenyl)-piperazin-1-yl]-propyl}-tetrahydro-imidazo[1,5-a]pyridine-1,3-dione] | > 10000 | > 10000 |
| O=c1n(CCN2CCN(c3cccc(Cl)c3)CC2)c(O)c2n1CCC2 [2-{2-[4-(3-Chloro-phenyl)-piperazin-1-yl]-ethyl}-tetrahydro-pyrrolo[1,2-c]imidazole-1,3-dione] | > 1000 | – |
